Data taken from patent US8648011B2, “Herbicidal compositions” (Syngenta Crop Protection LLC, priority 2009, dated 2014).

Test system: maize
Assay: Glass house test of safening effect on herbicide A, post-emergence application, phytotoxicity in maize
Assay type: in vivo
Details: for Phytotoxicity (%): post-emergence, maize, 24 DAA
Method: A glass house test was carried out to determine the safening effect of numerous safeners on a compound of Formula (I) with respect to maize. Various herbicidal compositions were applied post-emergence and the observed phytotoxicity in maize assessed 24 days after application (24DAA). A=2-chloro-5-[3,6-dihydro-3-methyl-2,6-dioxo-4-(trifluoromethyl)-1(2H)-pyrimidinyl]-4-fluoro-N-[[methyl(1-methylethyl)amino]sulfonyl]benzamide; B=1-[4-(N-2-methoxybenzoylsulfamoyl)phenyl]-3-methylurea.

[1] = safener 100 g/ha applied with herbicide A 100 g/ha
[2] = safener 250 g/ha applied with herbicide A 250 g/ha

Row | Compound | Phytotoxicity (%) (herbicide A 100 g/ha, no safener) | Phytotoxicity (%) (herbicide A 250 g/ha, no safener) | safening of the 3-phenyluracil herbicide A in maize (in vivo) | Phytotoxicity (%) [1] | Phytotoxicity (%) [2]
1 | CC(C)N(C)S(=O)(=O)NC(=O)c1cc(-n2c(=O)cc(C(F)(F)F)n(C)c2=O)c(F)cc1Cl [A, 2-chloro-5-[3,6-dihydro-3-methyl-2,6-dioxo-4-(trifluoromethyl)-1(2H)-pyrimidinyl]-4-fluoro-N-[[methyl(1-methylethyl)amino]sulfonyl]benzamide] | 25% | 35% |  |  | 
2 | CNC(=O)Nc1ccc(S(=O)(=O)NC(=O)c2ccccc2OC)cc1 [B, 1-[4-(N-2-methoxybenzoylsulfamoyl)phenyl]-3-methylurea] |  |  | surprisingly good safening |  | 
3 | O=C(O)COc1ccc(Cl)c2cccnc12 [Cloquintocet] |  |  |  | 25% | 35%
4 | O=C(O)C1=NOC(c2ccccc2)(c2ccccc2)C1 [Isoxadifen] |  |  |  | 28% | 30%
5 | CC1(C(=O)O)CC(C(=O)O)=NN1c1ccc(Cl)cc1Cl (stereo not drawn) [Mefenpyr] |  |  |  | 30% | 40%
